Measurements from US5928896A, “Polypeptides that include conformation-constraining groups which flank a protein--protein interaction site” (Virginia Commonwealth University, priority 1997, dated 1999).
Where a SMILES comes first, the peptide text is derived from it.

Assays:
[1] = system: receptors of sweet tasting papillae; conditions: comparison; cited from earlier work
[2] = Preliminary studies of hypotensive peptide versus diltiazem (diastolic pressure, arrhythmia); format: in vivo, rat
Description: Dose: 60 to 120 μg per rat (5 to 10 μM).

Structure (SMILES) | Sweetness relative to sugar [1] [times sweeter than sugar] | Effect on diastolic pressure [2]
COC(=O)[C@H](Cc1ccccc1)NC(=O)[C@@H](N)CC(=O)O [aspartame] (H-Asp-Phe-OMe) | 160 | 
COc1ccc([C@@H]2Sc3ccccc3N(CCN(C)C)C(=O)[C@@H]2OC(C)=O)cc1 [diltiazem] |  | small increase in the diastolic pressure
